In ChEMBL document CHEMBL3779781, “New direct inhibitors of InhA with antimycobacterial activity based on a tetrahydropyran scaffold” (Eur J Med Chem, 2016) one finds Ratio and MIC data, which are given here for two molecules.

Test [1] concerns Mycobacterium tuberculosis. The test is described as follows: Ratio of MIC for isoniazid resistant Mycobacterium tuberculosis H37Rv clinical isolate 3 harboring InhA promoter C-15T mutant to MIC for Mycobacterium tuberculosis H37Rv. The class given is functional.
For test [2], the system named is Mycobacterium tuberculosis. The test is described as follows: Ratio of MIC for isoniazid resistant Mycobacterium tuberculosis H37Rv clinical isolate 1 harboring katG S315T mutant to MIC for Mycobacterium tuberculosis H37Rv. The class given is functional.
For test [3], the system named is Mycobacterium tuberculosis. The test is described as follows: Antimycobacterial activity against isoniazid resistant Mycobacterium tuberculosis H37Rv clinical isolate 7 harboring katG S315T mutant. The class given is functional, H37Rv isolate 7.
Test [4] has as its system Mycobacterium tuberculosis. The test is described as follows: Ratio of MIC for isoniazid resistant Mycobacterium tuberculosis H37Rv clinical isolate 6 harboring InhA promoter C-15T mutant to MIC for Mycobacterium tuberculosis H37Rv. The class given is functional.
Test [5] relates to Mycobacterium tuberculosis. The test is described as follows: Ratio of MIC for isoniazid resistant Mycobacterium tuberculosis H37Rv clinical isolate 4 harboring katG S315T mutant to MIC for Mycobacterium tuberculosis H37Rv. The class given is functional.
Test [6] relates to Mycobacterium tuberculosis. The test is described as follows: Antimycobacterial activity against isoniazid resistant Mycobacterium tuberculosis H37Rv clinical isolate 4 harboring katG S315T mutant. The class given is functional, H37Rv isolate 4.
Test [7] has as its system Mycobacterium tuberculosis. The test is described as follows: Antimycobacterial activity against isoniazid resistant Mycobacterium tuberculosis H37Rv clinical isolate 6 harboring InhA promoter C-15T mutant. The class given is functional, H37Rv isolate 6.
Test [8] concerns Mycobacterium tuberculosis. The test is described as follows: Antimycobacterial activity against isoniazid resistant Mycobacterium tuberculosis H37Rv clinical isolate 3 harboring InhA promoter C-15T mutant. The class given is functional, H37Rv isolate 3.
Test [9] concerns Mycobacterium tuberculosis. The test is described as follows: Ratio of MIC for isoniazid resistant Mycobacterium tuberculosis H37Rv clinical isolate 7 harboring katG S315T mutant to MIC for Mycobacterium tuberculosis H37Rv. The class given is functional.
For test [10], the system named is Mycobacterium tuberculosis. The test is described as follows: Ratio of MIC for isoniazid resistant Mycobacterium tuberculosis H37Rv clinical isolate 2 harboring InhA promoter C-15T mutant to MIC for Mycobacterium tuberculosis H37Rv. The class given is functional.
The subject of test [11] is Mycobacterium tuberculosis. The test is described as follows: Antimycobacterial activity against isoniazid resistant Mycobacterium tuberculosis H37Rv clinical isolate 1 harboring katG S315T mutant. The class given is functional, H37Rv isolate 1.
Test [12] relates to Mycobacterium tuberculosis. The test is described as follows: Antimycobacterial activity against isoniazid resistant Mycobacterium tuberculosis H37Rv clinical isolate 5 harboring katG S315T mutant. The class given is functional, H37Rv isolate 5.
Test [13] concerns Mycobacterium tuberculosis. The test is described as follows: Antimycobacterial activity against isoniazid resistant Mycobacterium tuberculosis H37Rv clinical isolate 2 harboring InhA promoter C-15T mutant. The class given is functional, H37Rv isolate 2.
Test [14] has as its system Mycobacterium tuberculosis. The test is described as follows: Ratio of MIC for isoniazid resistant Mycobacterium tuberculosis H37Rv clinical isolate 5 harboring katG S315T mutant to MIC for Mycobacterium tuberculosis H37Rv. The class given is functional.

The structures appear in SMILES notation.

With `Cc1cc(C)n(Cc2ccc(C(=O)NCC3(c4nc(-c5ccccc5)cs4)CCOCC3)cc2)n1`, the Ratio in test [1] stood at 8; in test [2], 2; in test [4], 8; in test [5], 1; in test [9] it was 2; in test [10], 8. In [14], the Ratio came to 8. Also, the MIC (in general, the lowest concentration found to suppress growth) in test [3] stood at 15.6 µM; in [6] it was 7.8 µM; in [7], 62.5 µM; in [8] it was 62.5 µM; in test [11] it was 15.6 µM; in test [12] it was 62.5 µM. In addition, the MIC in test [13] came to 62.5 µM.
Turning to `NNC(=O)c1ccncc1` [ISONIAZID], the Ratio was 3.1 in test [1]; 100 in [2]; 3.1 in test [4]; 50 in [5]; 400 in test [9]; 6.25 in test [10]. The Ratio in test [14] was 25. For the same molecule, the MIC in test [3] was 200 µg/mL; in test [6], 25 µg/mL; in test [7], 1.56 µg/mL; in test [8], 1.56 µg/mL; in [11], 50 µg/mL; in test [12], 12.5 µg/mL. This molecule also had an MIC in test [13] of 3.1 µg/mL.
